Experimental data published in the kinase profiling compilation of Christmann-Franck et al. (2016).

How the values were obtained:
Assay in all cases: radiometric filter-binding kinase assay
[1] = system: AKT2 (human), P31751 [S474D]
AURKB (human) = AURKB (human) (UniProt Q96GD4)
CAMKK2 (human) = CAMKK2 (human) (UniProt Q96RR4)
CHEK1 (human) = CHEK1 (human) (UniProt O14757)
CHEK2 (human) = CHEK2 (human) (UniProt O96017)
EPHB4 (human) = EPHB4 (human) (UniProt P54760)
GCK (human) = GCK (human) (UniProt Q12851)
IGF1R (human) = IGF1R (human) (UniProt P08069)
IKBKB (human) = IKBKB (human) (UniProt O14920)
MAP2K1 (human) = MAP2K1 (human) (UniProt Q02750)
MAP3K1 (human) = MAP3K1 (human) (UniProt Q13233)
MAP3K5 (human) = MAP3K5 (human) (UniProt Q99683)
MAPK1 (human) = MAPK1 (human) (UniProt P28482)
MAPK10 (human) = MAPK10 (human) (UniProt P53779)
MAPK15 (human) = MAPK15 (human) (UniProt Q8TD08)
MAPK3 (human) = MAPK3 (human) (UniProt P27361)
MAPK9 (human) = MAPK9 (human) (UniProt P45984)
MAPKAPK2 (human) = MAPKAPK2 (human) (UniProt P49137)
MARK2 (human) = MARK2 (human) (UniProt Q7KZI7)
MINK1 (human) = MINK1 (human) (UniProt Q8N4C8)
MKNK1 (human) = MKNK1 (human) (UniProt Q9BUB5)
MKNK2 (human) = MKNK2 (human) (UniProt Q9HBH9)
NEK2 (human) = NEK2 (human) (UniProt P51955)
NTRK1 (human) = NTRK1 (human) (UniProt P04629)
PHKG1 (human) = PHKG1 (human) (UniProt Q16816)
PIM2 (human) = PIM2 (human) (UniProt Q9P1W9)
PKN2 (human) = PKN2 (human) (UniProt Q16513)
PRKAA1 or PRKAA2 (rat) = conditions: accession and sequence are those of the human protein
PRKACA (human) = PRKACA (human) (UniProt P17612)
PRKCA (human) = PRKCA (human) (UniProt P17252)
RPS6KA1 KD1 KD2 (human) = RPS6KA1 KD1 KD2 (human) (UniProt Q15418)
SRC (human) = SRC (human) (UniProt P12931)
[2] = biological target: STK11 CAB39 STRADA (human) (UniProt Q9Y376+Q7RTN6+Q15831)
STK3 (human) = STK3 (human) (UniProt Q13188)
YES1 (human) = YES1 (human) (UniProt P07947)
Chain of YES1 (human) (P07947 whole entry, looked up): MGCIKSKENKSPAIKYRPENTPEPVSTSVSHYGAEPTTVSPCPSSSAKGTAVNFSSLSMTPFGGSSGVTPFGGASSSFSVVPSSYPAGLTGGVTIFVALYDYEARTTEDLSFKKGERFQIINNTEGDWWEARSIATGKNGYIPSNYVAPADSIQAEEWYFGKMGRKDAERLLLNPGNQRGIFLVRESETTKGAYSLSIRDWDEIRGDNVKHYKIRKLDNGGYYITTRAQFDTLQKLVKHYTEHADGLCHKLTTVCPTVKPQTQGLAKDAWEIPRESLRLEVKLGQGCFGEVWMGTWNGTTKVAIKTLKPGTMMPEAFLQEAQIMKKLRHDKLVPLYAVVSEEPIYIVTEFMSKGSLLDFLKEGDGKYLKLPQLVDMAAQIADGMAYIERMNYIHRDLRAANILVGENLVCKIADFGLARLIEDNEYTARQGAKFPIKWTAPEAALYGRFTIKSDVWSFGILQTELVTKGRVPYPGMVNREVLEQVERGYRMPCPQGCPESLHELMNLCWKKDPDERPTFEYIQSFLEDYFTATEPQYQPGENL

Chain of IKBKB (human) (O14920 whole entry, looked up): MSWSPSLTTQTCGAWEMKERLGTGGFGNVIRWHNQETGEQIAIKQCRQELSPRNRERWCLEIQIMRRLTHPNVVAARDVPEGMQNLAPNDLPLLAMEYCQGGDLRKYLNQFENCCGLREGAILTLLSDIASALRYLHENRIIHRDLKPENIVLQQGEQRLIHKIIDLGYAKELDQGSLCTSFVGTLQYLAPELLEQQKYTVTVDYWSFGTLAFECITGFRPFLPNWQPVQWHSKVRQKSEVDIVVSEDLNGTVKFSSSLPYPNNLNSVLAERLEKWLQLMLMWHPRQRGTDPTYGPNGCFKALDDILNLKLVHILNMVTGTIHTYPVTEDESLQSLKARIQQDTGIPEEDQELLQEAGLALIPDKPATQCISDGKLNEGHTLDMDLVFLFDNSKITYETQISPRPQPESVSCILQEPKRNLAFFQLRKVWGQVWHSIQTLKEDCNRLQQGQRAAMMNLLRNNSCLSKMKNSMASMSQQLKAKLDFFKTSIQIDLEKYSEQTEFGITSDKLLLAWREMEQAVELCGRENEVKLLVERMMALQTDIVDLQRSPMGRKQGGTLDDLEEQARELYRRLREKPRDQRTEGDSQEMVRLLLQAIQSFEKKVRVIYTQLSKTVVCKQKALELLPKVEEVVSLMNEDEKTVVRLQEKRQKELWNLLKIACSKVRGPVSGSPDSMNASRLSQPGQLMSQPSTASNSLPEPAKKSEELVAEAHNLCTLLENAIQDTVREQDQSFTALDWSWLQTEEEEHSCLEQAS
Chain of MAPK10 (human) (P53779 whole entry, looked up): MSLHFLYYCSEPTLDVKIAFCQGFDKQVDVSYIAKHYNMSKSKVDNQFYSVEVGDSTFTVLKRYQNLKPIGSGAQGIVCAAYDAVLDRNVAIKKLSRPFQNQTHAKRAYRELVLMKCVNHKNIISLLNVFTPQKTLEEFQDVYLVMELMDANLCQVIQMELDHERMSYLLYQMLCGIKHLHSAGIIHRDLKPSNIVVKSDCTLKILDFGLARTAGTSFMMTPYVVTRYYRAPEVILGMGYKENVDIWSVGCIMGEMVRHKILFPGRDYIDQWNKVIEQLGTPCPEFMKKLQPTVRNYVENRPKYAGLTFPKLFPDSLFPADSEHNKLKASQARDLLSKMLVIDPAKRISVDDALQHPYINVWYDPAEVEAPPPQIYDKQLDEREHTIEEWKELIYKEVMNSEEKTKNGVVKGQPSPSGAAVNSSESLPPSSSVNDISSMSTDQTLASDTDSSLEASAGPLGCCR
Chain of NTRK1 (human) (P04629 whole entry, looked up): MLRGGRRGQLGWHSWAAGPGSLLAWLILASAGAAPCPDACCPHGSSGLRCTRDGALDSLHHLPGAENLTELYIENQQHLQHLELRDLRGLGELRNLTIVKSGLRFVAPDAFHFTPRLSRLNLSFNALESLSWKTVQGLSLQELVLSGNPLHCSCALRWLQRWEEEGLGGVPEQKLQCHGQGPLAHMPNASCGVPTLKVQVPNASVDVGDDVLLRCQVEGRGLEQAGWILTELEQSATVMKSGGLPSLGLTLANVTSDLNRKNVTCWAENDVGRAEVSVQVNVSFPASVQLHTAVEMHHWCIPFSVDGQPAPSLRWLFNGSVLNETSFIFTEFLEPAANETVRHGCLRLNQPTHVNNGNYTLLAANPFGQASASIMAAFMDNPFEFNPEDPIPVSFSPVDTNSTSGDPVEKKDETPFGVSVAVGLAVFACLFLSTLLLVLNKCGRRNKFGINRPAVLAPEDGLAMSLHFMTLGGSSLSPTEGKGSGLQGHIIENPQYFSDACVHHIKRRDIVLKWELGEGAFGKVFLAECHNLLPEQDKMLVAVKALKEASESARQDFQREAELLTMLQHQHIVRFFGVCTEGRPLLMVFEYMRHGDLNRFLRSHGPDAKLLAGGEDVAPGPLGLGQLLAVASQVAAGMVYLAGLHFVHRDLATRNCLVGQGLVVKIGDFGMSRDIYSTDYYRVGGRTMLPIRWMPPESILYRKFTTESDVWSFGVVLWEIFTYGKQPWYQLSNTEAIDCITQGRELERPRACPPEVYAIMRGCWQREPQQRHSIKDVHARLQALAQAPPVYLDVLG
Chain of SRC (human) (P12931 whole entry, looked up): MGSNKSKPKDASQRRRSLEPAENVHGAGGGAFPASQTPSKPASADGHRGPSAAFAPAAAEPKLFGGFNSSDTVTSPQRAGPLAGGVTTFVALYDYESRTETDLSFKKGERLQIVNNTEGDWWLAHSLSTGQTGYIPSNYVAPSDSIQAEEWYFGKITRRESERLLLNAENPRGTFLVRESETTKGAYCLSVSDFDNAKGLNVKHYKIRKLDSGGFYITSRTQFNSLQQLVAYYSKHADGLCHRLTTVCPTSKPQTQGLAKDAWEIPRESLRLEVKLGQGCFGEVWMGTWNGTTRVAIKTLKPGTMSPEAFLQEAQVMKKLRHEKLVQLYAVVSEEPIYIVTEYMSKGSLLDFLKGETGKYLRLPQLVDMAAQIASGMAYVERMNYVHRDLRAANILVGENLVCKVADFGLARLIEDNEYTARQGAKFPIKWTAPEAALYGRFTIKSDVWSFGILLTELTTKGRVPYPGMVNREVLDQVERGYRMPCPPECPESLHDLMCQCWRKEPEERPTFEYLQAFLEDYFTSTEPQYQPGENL
Chain of MAPK3 (human) (P27361 whole entry, looked up): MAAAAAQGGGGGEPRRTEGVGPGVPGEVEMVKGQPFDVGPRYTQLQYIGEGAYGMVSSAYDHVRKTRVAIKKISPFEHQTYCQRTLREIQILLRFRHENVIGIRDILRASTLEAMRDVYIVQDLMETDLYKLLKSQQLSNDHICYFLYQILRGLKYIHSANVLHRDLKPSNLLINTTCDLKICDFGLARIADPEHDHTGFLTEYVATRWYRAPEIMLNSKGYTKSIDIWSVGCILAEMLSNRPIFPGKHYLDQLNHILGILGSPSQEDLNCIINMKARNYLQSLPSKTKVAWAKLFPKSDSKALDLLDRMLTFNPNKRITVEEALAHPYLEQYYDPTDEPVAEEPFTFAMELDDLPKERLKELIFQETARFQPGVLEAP
Chain of GCK (human) (Q12851 whole entry, looked up): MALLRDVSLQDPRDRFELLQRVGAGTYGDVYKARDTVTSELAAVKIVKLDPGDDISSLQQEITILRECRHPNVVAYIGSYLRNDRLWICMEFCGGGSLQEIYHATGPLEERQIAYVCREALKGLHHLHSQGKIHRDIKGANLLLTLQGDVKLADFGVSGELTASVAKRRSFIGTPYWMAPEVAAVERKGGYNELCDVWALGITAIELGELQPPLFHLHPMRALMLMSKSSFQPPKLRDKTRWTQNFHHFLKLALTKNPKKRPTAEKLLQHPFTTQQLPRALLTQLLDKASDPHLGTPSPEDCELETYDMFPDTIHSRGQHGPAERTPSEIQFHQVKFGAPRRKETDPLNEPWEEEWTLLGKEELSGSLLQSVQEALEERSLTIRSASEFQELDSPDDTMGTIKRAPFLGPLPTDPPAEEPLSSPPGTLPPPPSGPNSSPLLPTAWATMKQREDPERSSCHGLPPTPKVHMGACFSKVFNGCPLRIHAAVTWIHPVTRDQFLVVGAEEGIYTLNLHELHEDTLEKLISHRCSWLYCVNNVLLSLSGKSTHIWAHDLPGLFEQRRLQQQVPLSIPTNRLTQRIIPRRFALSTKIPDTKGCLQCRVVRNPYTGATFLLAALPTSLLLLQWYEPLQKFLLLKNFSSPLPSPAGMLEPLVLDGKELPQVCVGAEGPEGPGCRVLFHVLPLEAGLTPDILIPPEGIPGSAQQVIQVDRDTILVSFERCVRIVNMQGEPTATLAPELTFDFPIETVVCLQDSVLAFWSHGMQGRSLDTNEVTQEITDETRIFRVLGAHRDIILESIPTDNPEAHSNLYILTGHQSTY

NC(=O)c1ccc(-c2ccc(Oc3cncc4sc(-c5nn[nH]n5)cc34)cc2)cc1
residual activity ([1]; compound 1.0 µM): 77%
residual activity ([1]; compound 10.0 µM): 62%
residual activity (AURKB (human); compound 1.0 µM): 84%
residual activity (AURKB (human); compound 10.0 µM): 58%
residual activity (CAMKK2 (human); compound 1.0 µM): 84%
residual activity (CAMKK2 (human); compound 10.0 µM): 23%
residual activity (CHEK1 (human); compound 1.0 µM): 79%
residual activity (CHEK1 (human); compound 10.0 µM): 87%
residual activity (CHEK2 (human); compound 1.0 µM): 97%
residual activity (CHEK2 (human); compound 10.0 µM): 59%
residual activity (EPHB4 (human); compound 1.0 µM): 97%
residual activity (EPHB4 (human); compound 10.0 µM): 96%
residual activity (GCK (human); compound 1.0 µM): 78%
residual activity (GCK (human); compound 10.0 µM): 13%
residual activity (IGF1R (human); compound 1.0 µM): 107%
residual activity (IGF1R (human); compound 10.0 µM): 95%
residual activity (IKBKB (human); compound 1.0 µM): 94%
residual activity (IKBKB (human); compound 10.0 µM): 64%
residual activity (MAP2K1 (human); compound 1.0 µM): 85%
residual activity (MAP2K1 (human); compound 10.0 µM): 78%
residual activity (MAP3K1 (human); compound 1.0 µM): 99%
residual activity (MAP3K1 (human); compound 10.0 µM): 51%
residual activity (MAP3K5 (human); compound 1.0 µM): 104%
residual activity (MAP3K5 (human); compound 10.0 µM): 112%
residual activity (MAPK1 (human); compound 1.0 µM): 96%
residual activity (MAPK1 (human); compound 10.0 µM): 96%
residual activity (MAPK10 (human); compound 1.0 µM): 105%
residual activity (MAPK10 (human); compound 10.0 µM): 72%
residual activity (MAPK15 (human); compound 1.0 µM): 85%
residual activity (MAPK15 (human); compound 10.0 µM): 2%
residual activity (MAPK3 (human); compound 1.0 µM): 97%
residual activity (MAPK3 (human); compound 10.0 µM): 78%
residual activity (MAPK9 (human); compound 1.0 µM): 99%
residual activity (MAPK9 (human); compound 10.0 µM): 85%
residual activity (MAPKAPK2 (human); compound 1.0 µM): 93%
residual activity (MAPKAPK2 (human); compound 10.0 µM): 85%
residual activity (MARK2 (human); compound 1.0 µM): 80%
residual activity (MARK2 (human); compound 10.0 µM): 83%
residual activity (MINK1 (human); compound 1.0 µM): 84%
residual activity (MINK1 (human); compound 10.0 µM): 21%
residual activity (MKNK1 (human); compound 1.0 µM): 100%
residual activity (MKNK1 (human); compound 10.0 µM): 84%
residual activity (MKNK2 (human); compound 1.0 µM): 94%
residual activity (MKNK2 (human); compound 10.0 µM): 58%
residual activity (NEK2 (human); compound 1.0 µM): 94%
residual activity (NEK2 (human); compound 10.0 µM): 80%
residual activity (NTRK1 (human); compound 1.0 µM): 83%
residual activity (NTRK1 (human); compound 10.0 µM): 89%
residual activity (PHKG1 (human); compound 1.0 µM): 100%
residual activity (PHKG1 (human); compound 10.0 µM): 84%
residual activity (PIM2 (human); compound 1.0 µM): 85%
residual activity (PIM2 (human); compound 10.0 µM): 14%
residual activity (PKN2 (human); compound 1.0 µM): 80%
residual activity (PKN2 (human); compound 10.0 µM): 53%
residual activity (PRKAA1 or PRKAA2 (rat); compound 1.0 µM): 77%
residual activity (PRKAA1 or PRKAA2 (rat); compound 10.0 µM): 49%
residual activity (PRKACA (human); compound 1.0 µM): 108%
residual activity (PRKACA (human); compound 10.0 µM): 72%
residual activity (PRKCA (human); compound 1.0 µM): 76%
residual activity (PRKCA (human); compound 10.0 µM): 30%
residual activity (RPS6KA1 KD1 KD2 (human); compound 1.0 µM): 88%
residual activity (RPS6KA1 KD1 KD2 (human); compound 10.0 µM): 33%
residual activity (SRC (human); compound 1.0 µM): 85%
residual activity (SRC (human); compound 10.0 µM): 92%
residual activity ([2]; compound 1.0 µM): 80%
residual activity ([2]; compound 10.0 µM): 59%
residual activity (STK3 (human); compound 1.0 µM): 98%
residual activity (STK3 (human); compound 10.0 µM): 75%
residual activity (YES1 (human); compound 1.0 µM): 91%
residual activity (YES1 (human); compound 10.0 µM): 87%

COc1cc(O)c2c(c1)/C=C/C[C@H](O)[C@H](O)C(=O)/C=C\C[C@H](C)OC2=O
residual activity ([1]; compound 0.1 µM): 86%
residual activity ([1]; compound 1.0 µM): 84%
residual activity (AURKB (human); compound 0.1 µM): 94%
residual activity (AURKB (human); compound 1.0 µM): 74%
residual activity (CAMKK2 (human); compound 0.1 µM): 87%
residual activity (CAMKK2 (human); compound 1.0 µM): 57%
residual activity (CHEK1 (human); compound 0.1 µM): 114%
residual activity (CHEK1 (human); compound 1.0 µM): 92%
residual activity (CHEK2 (human); compound 0.1 µM): 110%
residual activity (CHEK2 (human); compound 1.0 µM): 87%
residual activity (EPHB4 (human); compound 0.1 µM): 87%
residual activity (EPHB4 (human); compound 1.0 µM): 90%
residual activity (GCK (human); compound 0.1 µM): 121%
residual activity (GCK (human); compound 1.0 µM): 80%
residual activity (IGF1R (human); compound 0.1 µM): 100%
residual activity (IGF1R (human); compound 1.0 µM): 93%
residual activity (IKBKB (human); compound 0.1 µM): 102%
residual activity (IKBKB (human); compound 1.0 µM): 95%
residual activity (MAP2K1 (human); compound 0.1 µM): 13%
residual activity (MAP2K1 (human); compound 1.0 µM): 2%
residual activity (MAP3K1 (human); compound 0.1 µM): 107%
residual activity (MAP3K1 (human); compound 1.0 µM): 92%
residual activity (MAP3K5 (human); compound 0.1 µM): 91%
residual activity (MAP3K5 (human); compound 1.0 µM): 95%
residual activity (MAPK1 (human); compound 0.1 µM): 103%
residual activity (MAPK1 (human); compound 1.0 µM): 65%
residual activity (MAPK10 (human); compound 0.1 µM): 107%
residual activity (MAPK10 (human); compound 1.0 µM): 90%
residual activity (MAPK15 (human); compound 0.1 µM): 40%
residual activity (MAPK15 (human); compound 1.0 µM): 4%
residual activity (MAPK3 (human); compound 0.1 µM): 106%
residual activity (MAPK3 (human); compound 1.0 µM): 64%
residual activity (MAPK9 (human); compound 0.1 µM): 109%
residual activity (MAPK9 (human); compound 1.0 µM): 81%
residual activity (MAPKAPK2 (human); compound 0.1 µM): 124%
residual activity (MAPKAPK2 (human); compound 1.0 µM): 79%
residual activity (MARK2 (human); compound 0.1 µM): 109%
residual activity (MARK2 (human); compound 1.0 µM): 114%
residual activity (MINK1 (human); compound 0.1 µM): 101%
residual activity (MINK1 (human); compound 1.0 µM): 83%
residual activity (MKNK1 (human); compound 0.1 µM): 55%
residual activity (MKNK1 (human); compound 1.0 µM): 13%
residual activity (MKNK2 (human); compound 0.1 µM): 41%
residual activity (MKNK2 (human); compound 1.0 µM): 26%
residual activity (NEK2 (human); compound 0.1 µM): 108%
residual activity (NEK2 (human); compound 1.0 µM): 89%
residual activity (NTRK1 (human); compound 0.1 µM): 46%
residual activity (NTRK1 (human); compound 1.0 µM): 24%
residual activity (PHKG1 (human); compound 0.1 µM): 100%
residual activity (PHKG1 (human); compound 1.0 µM): 89%
residual activity (PIM2 (human); compound 0.1 µM): 91%
residual activity (PIM2 (human); compound 1.0 µM): 106%
residual activity (PKN2 (human); compound 0.1 µM): 102%
residual activity (PKN2 (human); compound 1.0 µM): 91%
residual activity (PRKAA1 or PRKAA2 (rat); compound 0.1 µM): 100%
residual activity (PRKAA1 or PRKAA2 (rat); compound 1.0 µM): 92%
residual activity (PRKACA (human); compound 0.1 µM): 99%
residual activity (PRKACA (human); compound 1.0 µM): 93%
residual activity (PRKCA (human); compound 0.1 µM): 107%
residual activity (PRKCA (human); compound 1.0 µM): 85%
residual activity (RPS6KA1 KD1 KD2 (human); compound 0.1 µM): 113%
residual activity (RPS6KA1 KD1 KD2 (human); compound 1.0 µM): 90%
residual activity (SRC (human); compound 0.1 µM): 106%
residual activity (SRC (human); compound 1.0 µM): 43%
residual activity ([2]; compound 0.1 µM): 138%
residual activity ([2]; compound 1.0 µM): 65%
residual activity (STK3 (human); compound 0.1 µM): 120%
residual activity (STK3 (human); compound 1.0 µM): 89%
residual activity (YES1 (human); compound 1.0 µM): 60%
